# Test results reported in publication PMC11403612, “Preparation and Preclinical Characterization of a Simple Ester for Dual Exogenous Supply of Lactate and Beta-hydroxybutyrate” (Journal of Agricultural and Food Chemistry, 2024).
# Assays:
# [1] = Hepatocyte stability of LaKe, human; type: in vitro ADME; settings: cryopreserved hepatocytes
# [2] = Stability of LaKe in plasma, rat; type: in vitro ADME
# Experimental: The in vitro stability of LaKe was evaluated following incubation in simulated gastric fluid (SGF), simulated intestinal fluid (SIF), fresh and frozen plasma (rats and humans, respectively), and the presence of hepatocytes (rats and humans) and liver microsomes (rats and humans). At the chosen time points, the mixtures were analyzed by LC-MS/MS to quantify the remaining LaKe and all assays included at least one control compound with known pharmacokinetic properties. […]
# centrifuged at 4000 rpm, 4℃ for 20 min. 60 μL of supernatant was mixed with 180 μL of purified water for subsequent LC/MS/MS analysis.
# LC-MS/MS Condition: ACQUITY UPLC BEH C18 1.7um 2.1 * 50mm Column (Part No.186002350). Mobile phase: A: 0.1% Formic Acid in Water; B: 0.1% Formic Acid in ACN. […]
# Samples were incubated at 37 ℃, 600 rpm for the appointed time. At the chosen time points (60, 120, 360, 1440 minutes) samples were immediately mixed with 400 μL of cold acetonitrile containing 200 ng/mL tolbutamide and labetalol (internal standards). 200 μL of suspension was removed and mixed completely with 400 μL of cold acetonitrile containing 200 ng/mL tolbutamide and labetalol again. The T0 samples were prepared by transferring 198 μL of SIF solution to corresponding well after adding 400 μL of cold acetonitrile containing 200 ng/mL tolbutamide and then mixing completely. The samples were […]
# Stability of LaKe in plasma […]
# rats = assay: Behaviour and tolerability observations in extended pharmacokinetics study; type: in vivo
# Experimental: Animals (SD rats, both male and female, 7–9 weeks) were individually housed from 24 h before dosing until the end of the study. Food was withdrawn the night before initiation of study; following food withdrawal, animals were maintained on glucose water containing 5% w/v glucose and 1% saline to suppress endogenous ketone production throughout the study. Food was returned 8 h post-test article dosing. Animals were monitored for distress or notable changes in behavior during the study. The animals were euthanized by CO2 inhalation 2 h after the last sample collection time point.
structure (smiles),measurement,setting,value
"CC(O)CCOC(=O)C(C)O (stereo not shown) [LaKe, 3-hydroxybutyl 2-hydroxypropanoate]",half-life at 0.1 mg/mL,[1],< 30 min
same,detection of LaKe at the first time point,"[2]; fresh plasma from rats, 10 min",could not be detected
same,half-life at 2 µM,[2]; rat plasma (fresh),< 30 min
same,behaviour observations,"rats; 12 g/kg, at 2 and 8 h following administration, some of the rats, normalized at 10 h",slightly reduced activity and a hunched posture
same,signs of toxicity,"rats; 10 h following administration, any of the doses",No signs of toxicity or deviation from normal behavior
same,behaviour observations,"rats; lower doses (1.3 g/kg and 4.1 g/kg), all time points",normal behavior was observed at all time points
same,overall tolerability,"rats; rats, oral, up to 12 g/kg",well tolerated
